In the test the target is T1, recombinant IL4I1 (Homo sapiens, UniProt Q96RQ9).
T1 construct: purchased R&D Systems 5684-AO-020
T1 sequence (Q96RQ9 22-567): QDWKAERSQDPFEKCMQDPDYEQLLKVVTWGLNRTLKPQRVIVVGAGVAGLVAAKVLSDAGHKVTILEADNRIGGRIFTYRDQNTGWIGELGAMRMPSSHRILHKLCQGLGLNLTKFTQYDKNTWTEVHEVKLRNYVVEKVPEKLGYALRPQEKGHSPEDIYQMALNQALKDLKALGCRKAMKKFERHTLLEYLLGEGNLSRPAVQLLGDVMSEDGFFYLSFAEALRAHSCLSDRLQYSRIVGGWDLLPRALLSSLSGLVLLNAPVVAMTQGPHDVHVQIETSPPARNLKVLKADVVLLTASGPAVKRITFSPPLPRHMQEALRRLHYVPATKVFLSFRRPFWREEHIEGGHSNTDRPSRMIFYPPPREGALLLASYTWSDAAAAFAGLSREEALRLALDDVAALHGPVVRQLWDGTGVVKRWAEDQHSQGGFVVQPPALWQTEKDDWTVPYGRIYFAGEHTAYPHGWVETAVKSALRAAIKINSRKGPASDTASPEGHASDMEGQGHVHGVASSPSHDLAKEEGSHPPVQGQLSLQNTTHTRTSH
The experiment in a line: IL4I1 Enzymatic Assay (Amplex Red/HRP coupled detection of H2O2, fluorescence). The format is biochemical. Conditions: 1 nM recombinant IL4I1; four-hour pre-incubation with compound; 1 mM each Phe, Tyr, Trp; ten-point titration. The method, boiled down: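 Recombinant IL4I1 (1 nM final) pre-incubated 4 h at ambient temperature with compound (0.5% DMSO) in 50 mM Hepes pH 7.0, 0.005% Tween20; reaction started with 1 mM each Phe/Tyr/Trp plus excess Amplex Red/HRP, run 120 min. H2O2 read as resorufin fluorescence; EC50 from 10-point four-parameter fit.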
As a reminder, the EC50 is the midpoint of the concentration-response curve. Consider `O=C(NCc1nnc(-c2ccccc2)s1)c1cn(Cc2cc[nH]n2)nn1` [Example 156, 1-((1H-pyrazol-3-yl)methyl)-N-((5-phenyl-1,3,4-thiadiazol-2-yl)methyl)-1H-1,2,3-triazole-4-carboxamide], for which the EC50 was determined as 8 nM. Regarding `O=C(NCc1nnc(-c2ccccc2)s1)c1cn(CC2COC2)nn1` [Example 157, 1-(oxetan-3-ylmethyl)-N-((5-phenyl-1,3,4-thiadiazol-2-yl)methyl)-1H-1,2,3-triazole-4-carboxamide], the EC50 worked out at 11 nM. Turning to `O=C(NCc1nnc(-c2ccccc2)s1)c1cn(C2(CO)COC2)nn1` [Example 158, 1-(3-(hydroxymethyl)oxetan-3-yl)-N-((5-phenyl-1,3,4-thiadiazol-2-yl)methyl)-1H-1,2,3-triazole-4-carboxamide], the EC50 was determined as 335 nM. As for `O=C(NCc1nnc(-c2ccccc2)s1)c1cn(C2(CO)CC2)nn1` [Example 159, 1-(1-(hydroxymethyl)cyclopropyl)-N-((5-phenyl-1,3,4-thiadiazol-2-yl)methyl)-1H-1,2,3-triazole-4-carboxamide], the EC50 stood at 170 nM.

As to `N#CC1(n2cc(C(=O)NCc3nnc(-c4ccccc4)s3)nn2)CC1` [Example 160, 1-(1-cyanocyclopropyl)-N-((5-phenyl-1,3,4-thiadiazol-2-yl)methyl)-1H-1,2,3-triazole-4-carboxamide], the EC50 worked out at 36 nM. For the compound `CC1(Cn2cc(C(=O)NCc3nnc(-c4ccccc4)s3)nn2)COC1` [Example 161, 1-((3-methyloxetan-3-yl)methyl)-N-((5-phenyl-1,3,4-thiadiazol-2-yl)methyl)-1H-1,2,3-triazole-4-carboxamide], the EC50 stood at 22 nM. Take `CNC(=O)C1(n2cc(C(=O)NCc3nnc(-c4ccccc4)s3)nn2)CC1` [Example 162, 1-(1-(methylcarbamoyl)cyclopropyl)-N-((5-phenyl-1,3,4-thiadiazol-2-yl)methyl)-1H-1,2,3-triazole-4-carboxamide]: the EC50 is 120 nM.

As to `O=C(NCc1nnc(-c2ccccc2)s1)c1cn(C2(CO)CCC2)nn1` [Example 163, 1-(1-(hydroxymethyl)cyclobutyl)-N-((5-phenyl-1,3,4-thiadiazol-2-yl)methyl)-1H-1,2,3-triazole-4-carboxamide], the half-maximal effective concentration (EC50) was determined as 104 nM. To `O=C(NCc1nnc(-c2ccccc2)s1)c1cn(Cc2cn[nH]c2)nn1` [Example 164, 1-((1H-pyrazol-4-yl)methyl)-N-((5-phenyl-1,3,4-thiadiazol-2-yl)methyl)-1H-1,2,3-triazole-4-carboxamide] belongs 17 nM. Turning to `O=C(NCc1nnc(-c2ccccc2)s1)c1cn(C[C@@H](F)CO)nn1` [Example 165, (R)-1-(2-fluoro-3-hydroxypropyl)-N-((5-phenyl-1,3,4-thiadiazol-2-yl)methyl)-1H-1,2,3-triazole-4-carboxamide], the concentration giving a half-maximal response (EC50) came out at 7 nM. In the case of `C[C@@H](CO)n1cc(C(=O)NCc2nnc(-c3ccccc3)s2)nn1` [Example 166, (S)-1-(1-hydroxypropan-2-yl)-N-((5-phenyl-1,3,4-thiadiazol-2-yl)methyl)-1H-1,2,3-triazole-4-carboxamide], the half-maximal effective concentration (EC50) was 9 nM. To `C[C@@H](C(F)F)n1cc(C(=O)NCc2nnc(-c3ccccc3)s2)nn1` [Example 167, (S)-1-(1,1-difluoropropan-2-yl)-N-((5-phenyl-1,3,4-thiadiazol-2-yl)methyl)-1H-1,2,3-triazole-4-carboxamide] belongs 7 nM; to `C[C@H](C(F)F)n1cc(C(=O)NCc2nnc(-c3ccccc3)s2)nn1` [Example 168, (R)-1-(1,1-difluoropropan-2-yl)-N-((5-phenyl-1,3,4-thiadiazol-2-yl)methyl)-1H-1,2,3-triazole-4-carboxamide], 7 nM; to `C[C@H](O)[C@@H](C)n1cc(C(=O)NCc2nnc(-c3ccccc3)s2)nn1` [Example 169, 1-((2R,3S)-3-hydroxybutan-2-yl)-N-((5-phenyl-1,3,4-thiadiazol-2-yl)methyl)-1H-1,2,3-triazole-4-carboxamide], 68 nM. To `C[C@H](CCF)n1cc(C(=O)NCc2nnc(-c3ccccc3)s2)nn1` [Example 170, (R)-1-(4-fluorobutan-2-yl)-N-((5-phenyl-1,3,4-thiadiazol-2-yl)methyl)-1H-1,2,3-triazole-4-carboxamide] belongs 34 nM.

With `O=C(NCc1nnc(-c2ccccc2)s1)c1cn(CCC(F)F)nn1` [Example 171, 1-(3,3-difluoropropyl)-N-((5-phenyl-1,3,4-thiadiazol-2-yl)methyl)-1H-1,2,3-triazole-4-carboxamide], the half-maximal effective concentration (EC50) stood at 10 nM. With `O=C(NCc1nnc(-c2ccccc2)s1)c1cn(C23CC(C2)C3)nn1` [Example 172, 1-(bicyclo[1.1.1]pentan-1-yl)-N-((5-phenyl-1,3,4-thiadiazol-2-yl)methyl)-1H-1,2,3-triazole-4-carboxamide], the concentration giving a half-maximal response (EC50) turned out to be 49 nM.

Turning to `O=C(NCc1nnc(-c2ccccc2)s1)c1cn(C23CC(F)(C2)C3)nn1` [Example 173, 1-(3-fluorobicyclo[1.1.1]pentan-1-yl)-N-((5-phenyl-1,3,4-thiadiazol-2-yl)methyl)-1H-1,2,3-triazole-4-carboxamide], the concentration giving a half-maximal response (EC50) is 334 nM. Take `COC1CC(n2cc(C(=O)NCc3nnc(-c4ccccc4)s3)nn2)C1` (stereo not shown) [Example 174, 1-(3-methoxycyclobutyl)-N-((5-phenyl-1,3,4-thiadiazol-2-yl)methyl)-1H-1,2,3-triazole-4-carboxamide]: the EC50 stood at 16 nM. As to `O=C(NCc1nnc(-c2ccccc2)s1)c1cn(C2CC(CO)(CO)C2)nn1` [Example 175, 1-(3,3-bis(hydroxymethyl)cyclobutyl)-N-((5-phenyl-1,3,4-thiadiazol-2-yl)methyl)-1H-1,2,3-triazole-4-carboxamide], the EC50 came to 80 nM. For the compound `O=C(NCc1nnc(-c2ccccc2)s1)c1cn(CC(F)(F)CO)nn1` [Example 176, 1-(2,2-difluoro-3-hydroxypropyl)-N-((5-phenyl-1,3,4-thiadiazol-2-yl)methyl)-1H-1,2,3-triazole-4-carboxamide], the EC50 came to 7 nM.

As for `O=C(NCc1nnc(-c2ccccc2)s1)c1cn(C2CCCOC2)nn1` (stereo not shown) [Example 177, N-((5-phenyl-1,3,4-thiadiazol-2-yl)methyl)-1-(tetrahydro-2H-pyran-3-yl)-1H-1,2,3-triazole-4-carboxamide], the EC50 worked out at 114 nM.

With `CC1(n2cc(C(=O)NCc3nnc(-c4ccccc4)s3)nn2)CS(=O)(=O)C1` [Example 178, 1-(3-methyl-1,1-dioxidothietan-3-yl)-N-((5-phenyl-1,3,4-thiadiazol-2-yl)methyl)-1H-1,2,3-triazole-4-carboxamide], the 50% effective concentration (EC50) came out at 267 nM. Take `O=C(NCc1nnc(-c2ccccc2)s1)c1cn(C[C@H]2CCCO2)nn1` [Example 179, (R)-N-((5-phenyl-1,3,4-thiadiazol-2-yl)methyl)-1-((tetrahydrofuran-2-yl)methyl)-1H-1,2,3-triazole-4-carboxamide]: the EC50 was 238 nM. Regarding `C[C@@H](O)Cn1cc(C(=O)NCc2nnc(-c3ccccc3)s2)nn1` [Example 180, (R)-1-(2-hydroxypropyl)-N-((5-phenyl-1,3,4-thiadiazol-2-yl)methyl)-1H-1,2,3-triazole-4-carboxamide], the half-maximal effective concentration (EC50) stood at 75 nM. Take `O=C(NCc1nnc(-c2ccccc2)s1)c1cn(CC(O)C2CC2)nn1` (stereo not shown) [Example 181, 1-(2-cyclopropyl-2-hydroxyethyl)-N-((5-phenyl-1,3,4-thiadiazol-2-yl)methyl)-1H-1,2,3-triazole-4-carboxamide]: the EC50 amounted to 239 nM. For the compound `O=C(NCc1nnc(-c2ccccc2)s1)c1cn([C@@H]2CC(=O)N(C3CC3)C2)nn1` [Example 182, (R)-1-(1-cyclopropyl-5-oxopyrrolidin-3-yl)-N-((5-phenyl-1,3,4-thiadiazol-2-yl)methyl)-1H-1,2,3-triazole-4-carboxamide], the EC50 worked out at 610 nM.

For `CN1CC(n2cc(C(=O)NCc3nnc(-c4ccccc4)s3)nn2)CC1=O` (stereo not shown) [Example 183, 1-(1-methyl-5-oxopyrrolidin-3-yl)-N-((5-phenyl-1,3,4-thiadiazol-2-yl)methyl)-1H-1,2,3-triazole-4-carboxamide], the half-maximal effective concentration (EC50) amounted to 139 nM. Turning to `O=C(NCc1nnc(-c2ccccc2)s1)c1cn([C@H]2CCOC[C@@H]2O)nn1` [Example 184, 1-((3R,4S)-3-hydroxytetrahydro-2H-pyran-4-yl)-N-((5-phenyl-1,3,4-thiadiazol-2-yl)methyl)-1H-1,2,3-triazole-4-carboxamide], the EC50 was 77 nM. Turning to `O=C(NCc1nnc(-c2ccccc2)s1)c1cn(CC2(CO)COC2)nn1` [Example 185, 1-((3-(hydroxymethyl)oxetan-3-yl)methyl)-N-((5-phenyl-1,3,4-thiadiazol-2-yl)methyl)-1H-1,2,3-triazole-4-carboxamide], the half-maximal effective concentration (EC50) stood at 25 nM. In the case of `C[C@H](O)[C@H](CO)n1cc(C(=O)NCc2nnc(-c3ccccc3)s2)nn1` [Example 186, 1-((2S,3S)-1,3-dihydroxybutan-2-yl)-N-((5-phenyl-1,3,4-thiadiazol-2-yl)methyl)-1H-1,2,3-triazole-4-carboxamide], the EC50 was determined as 274 nM.
